± gives the expanded uncertainty stated by the source.
Details: Liquid

ClCC1CO1 (stereo unspecified) [1-chloro-2,3-epoxypropane]
Details | vapor or sublimation pressure [kPa]
315.67 K | 5.916 ± 0.02
316.53 K | 6.183 ± 0.02
318.81 K | 6.915 ± 0.02
321.9 K | 8.015 ± 0.021
324.03 K | 8.859 ± 0.021
327.03 K | 10.18 ± 0.021
330.21 K | 11.74 ± 0.021
334.22 K | 14.01 ± 0.022
334.77 K | 14.32 ± 0.022
337.79 K | 16.3 ± 0.022
339.71 K | 17.66 ± 0.023
343.98 K | 21.05 ± 0.023
345.99 K | 22.82 ± 0.024
347.15 K | 23.9 ± 0.024
350.87 K | 27.61 ± 0.025
352.3 K | 29.16 ± 0.025
354.46 K | 31.66 ± 0.026
357.56 K | 35.49 ± 0.027
359.92 K | 38.7 ± 0.028
363.28 K | 43.68 ± 0.029
367.42 K | 50.42 ± 0.031
371.36 K | 57.63 ± 0.032
375.06 K | 65.2 ± 0.037
388.29 K | 98.82 ± 0.04

CN1CCCCCC1=O [1-methylazacycloheptan-2-one]
Details | vapor or sublimation pressure [kPa]
402.95 K | 4.019 ± 0.02
405.13 K | 4.39 ± 0.02
411.63 K | 5.651 ± 0.02
415.53 K | 6.531 ± 0.02
420.7 K | 7.906 ± 0.021
424.29 K | 8.986 ± 0.021
428.38 K | 10.38 ± 0.021
430.35 K | 11.12 ± 0.021
434.66 K | 12.84 ± 0.021
436.35 K | 13.6 ± 0.021
443.09 K | 16.89 ± 0.022
450.68 K | 21.39 ± 0.023
458.3 K | 26.82 ± 0.024
462.79 K | 30.5 ± 0.024
468.95 K | 36.27 ± 0.026
479.21 K | 47.69 ± 0.03
510.6 K | 101.4 ± 0.036

CN1CCCC1=O [N-methylpyrrolidone]
Details | vapor or sublimation pressure [kPa]
380.73 K | 4.742 ± 0.02
383.12 K | 5.24 ± 0.02
386.38 K | 5.98 ± 0.02
387.92 K | 6.361 ± 0.02
389.88 K | 6.862 ± 0.02
393.04 K | 7.775 ± 0.021
400.46 K | 10.29 ± 0.021
403.85 K | 11.62 ± 0.021
406.68 K | 12.87 ± 0.021
408.96 K | 13.96 ± 0.022
411.42 K | 15.22 ± 0.022
413.77 K | 16.5 ± 0.022
416.81 K | 18.28 ± 0.022
420.94 K | 20.97 ± 0.023
424.65 K | 23.65 ± 0.023
427.56 K | 25.96 ± 0.024
432.29 K | 30.08 ± 0.025
435.85 K | 33.54 ± 0.025
439.12 K | 36.99 ± 0.026
441.74 K | 39.96 ± 0.027
444.04 K | 42.73 ± 0.027
446.64 K | 46.02 ± 0.028
451.08 K | 52.18 ± 0.029
457.46 K | 62.11 ± 0.033
475.72 K | 99.4 ± 0.037

Reference: the NIST ThermoML archive (doi:10.1021/je700398k)
